Structures can show the parent of a compound that is named as a salt.
Assay: In vivo distribution of 99mTc-labelled chelators in rats
Set-up: species or system male Wistar rats
Conditions: for GI tract accumulation/localization (share of the dose) / dose remaining in the blood / accumulation in the kidney / localization in urine: male Wistar rats; for GI tract accumulation/localization (share of the dose): 99mTc-labelled chelator 200 μL (200 μCi) i.v. tail vein, organs counted after 120 min images; for dose remaining in the blood / accumulation in the kidney / localization in urine: 99mTc-labelled chelator i.v. tail vein; for dose remaining in the blood: after 120 min images, blood volume assumed 8% body weight; for accumulation in the kidney: examples 1 and 2 approximately equal
Procedure: Approximately 1 mg of each chelator was dissolved in 200 μL saline or 200 μL ethanol:water (1:1) in a tube. To the tube was added 100-300 μL sodium ^99m Tc-pertechnetate (5-15 mCi), 100 μL phosphate buffer (0.25M, pH 7.4), and 200 μL of a solution containing 50 μg stannous chloride dihydrate and 40 mg sodium tartrate dihydrate. The tube was capped tightly and placed in a boiling water bath for 10 minutes.
After cooling, the reaction mixture was loaded onto a C-18 solid-phase extraction cartridge (Sep-Pak) which had been activated with 5 mL methanol and 5 mL 1 mM HCl. The cartridge was washed with 5 mM HCl and the eluate was collected in a test tube. The cartridge was then dried by forcing air through it. The product was eluted with 2 mL ethanol:water (1:1) and collected in a separate tube. The cartridge was placed in another tube and the three tubes were assayed in a radionuclide dose calibrator (ionization chamber). The yield was calculated as the activity in the ethanol:water eluate divided by the total activity in the three tubes under the assumption that the desired product was relatively lipophilic. A less lipophilic chelator would elute partially in the acid wash and the apparent yield would be low.
Distribution within rats of selected chelators and a reference chelator were determined using established protocols. Briefly, male Wistar rats (Charles River, 200 g) were anaesthetized with somnitol (40 to 50 mg/kg) and 200 μL of the labelled chelator (ie. 200 μCi) was injected intravenously via the tail vein. Serial whole-body scintigrams were acquired for first 10 minutes, After further images were obtained at 60 and 120 minutes, the rat was killed with anaesthesia and samples of organs (blood, heart, lung, liver, spleen, kidney, muscle, GI tract) were weighed and counted in either a well-type gamma counter or in a gamma dose calibrator. Dose calculations were made based on the assumption that rats weighed 200 g and that the blood volume constituted 8% body weight. All results were corrected for the residual dose in the tail.

SMILES	GI tract excretion (in words) (in comparison with the N2S2 reference chelator, rats, i.v.)	GI tract accumulation/localization (share of the dose)	dose remaining in the blood	accumulation in the kidney	localization in urine [%]	clearance from the blood (and other tissues), in words (rats, i.v.)	route of elimination (rats, i.v.)
O=C(CSC(=O)c1ccccc1)NNC(=O)NNC(=O)CSC(=O)c1ccccc1 [Example 1, N,N'-bis(S-benzoylmercaptoacetyl)-carbohydrazide]	remarkably low	about 9%	about 14%	7-14%	–	–	–
N=C(NNC(=O)CSC(=O)c1ccccc1)NNC(=O)CSC(=O)c1ccccc1 [Example 2, N,N'-bis-(S-benzoylmercaptoacetyl)-1,3-diaminoguanidine hydrochloride]	–	30%	about 10%	7-14%	20	–	–
O=C(CNC(=O)CSC(=O)c1ccccc1)CNC(=O)CSC(=O)c1ccccc1 [Example 3, N,N'-bis-(S-benzoylmercaptoacetyl)-1,3-diaminoacetone]	–	50%	3%	–	25	fastest clearance from the blood and other tissues	mainly eliminated through the liver and GI tract

Source: patent US5858327A, “Hydrazino-type N2 S2 radionuclide chelating compounds” (Resolutions Pharmaceuticals, Inc., priority 1996, dated 1999)
